According to PMC8022998 (Biomacromolecules, 2020):

Molecular target: TSPO (translocator protein (18 kDa)) (Oryctolagus cuniculus, UniProt G1SMF7)
Experiment: [3H]-PK11195 radioligand displacement, size exclusion desalting plates
Format: binding
Conditions: 1.2 nM [3H]-PK11195, 50 mM Tris-HCl pH 7.4, 30 min, room temperature; isolated mitochondria

Sequence of TSPO (translocator protein (18 kDa)) (G1SMF7 229-397): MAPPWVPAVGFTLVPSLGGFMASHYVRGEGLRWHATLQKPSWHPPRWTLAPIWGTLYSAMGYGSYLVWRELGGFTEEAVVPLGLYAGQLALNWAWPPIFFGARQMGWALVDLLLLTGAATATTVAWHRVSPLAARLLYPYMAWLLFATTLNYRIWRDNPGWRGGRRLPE

IC50 [nM]	SMILES
100 ± 20	CCN(CC)C(=O)Cc1c(-c2ccc(OCCn3cc(CO)nn3)cc2)nn2c(C)cc(C)nc12 [DPA-triazole]
5 ± 0.5	CCC(C)N(C)C(=O)c1cc2ccccc2c(-c2ccccc2Cl)n1 (centres unmarked) [PK11195]
